# PubChem BioAssay (NCI)
# Several values for one entry are separate records, joined by “and”; a condition that tells them apart may be missing. Equal entries are not always repeated.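 48-hour exposure; five concentrations; linearly interpolated endpoints. GI50 marks 50% less growth. TGI denotes the concentration required for complete inhibition of growth.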
# Experiments:
# Experiment in all cases: growth of human tumour cells (NCI), 48 h
# HL-60(TB) leukemia = tested on: HL-60(TB) leukemia
# CCRF-CEM leukemia = tested on: CCRF-CEM leukemia
# A498 renal = tested on: A498 renal
# DU-145 prostate = tested on: DU-145 prostate
# KM12 colon = tested on: KM12 colon
# HOP-92 NSCLC = tested on: HOP-92 NSCLC
# IGROV1 ovarian = tested on: IGROV1 ovarian
# OVCAR-8 ovarian = tested on: OVCAR-8 ovarian
# HCT-15 colon = tested on: HCT-15 colon
# 786-0 renal = tested on: 786-0 renal
# SK-OV-3 ovarian = tested on: SK-OV-3 ovarian
# LOX IMVI melanoma = tested on: LOX IMVI melanoma
# NCI-H226 lung = tested on: NCI-H226 lung
# M14 melanoma = tested on: M14 melanoma
# OVCAR-3 ovarian = tested on: OVCAR-3 ovarian
# HCC-2998 colon = tested on: HCC-2998 colon
# BT-549 breast = tested on: BT-549 breast
# SR leukemia = tested on: SR leukemia
# HT29 colon = tested on: HT29 colon
# HCT-116 colon = tested on: HCT-116 colon
# MOLT-4 leukemia = tested on: MOLT-4 leukemia
# SNB-19 CNS = tested on: SNB-19 CNS
# SK-MEL-5 melanoma = tested on: SK-MEL-5 melanoma
# MALME-3M melanoma = tested on: MALME-3M melanoma
# OVCAR-4 ovarian = tested on: OVCAR-4 ovarian
# K-562 leukemia = tested on: K-562 leukemia
# SF-295 CNS = tested on: SF-295 CNS
# COLO 205 colon = tested on: COLO 205 colon
# SN12C renal = tested on: SN12C renal
# SF-268 CNS = tested on: SF-268 CNS
# EKVX NSCLC = tested on: EKVX NSCLC
# TK-10 renal = tested on: TK-10 renal
# MCF7 breast = tested on: MCF7 breast
# HOP-62 NSCLC = tested on: HOP-62 NSCLC
# RPMI-8226 leukemia = tested on: RPMI-8226 leukemia
# NCI-H522 lung = tested on: NCI-H522 lung
# SW-620 colon = tested on: SW-620 colon
compound,measurement,setting,value
Cc1cc(S(=O)(=O)[O-])ccc1-n1nc(C)[c-](N=Nc2cc(S(=O)(=O)[O-])ccc2C(=O)[O-])c1=O.[Cr+3].[Na+].[OH-] (stereo not drawn),GI50,HL-60(TB) leukemia,28300 nM
same,GI50,CCRF-CEM leukemia,468 nM
CC(=O)Nc1ccc(/C=C/C(=O)N2CC(CCl)c3c2cc(N)c2ccccc32)cc1 (stereo not drawn),TGI,A498 renal,6.09 nM
same,TGI,DU-145 prostate,135 nM
same,TGI,KM12 colon,50000 nM and > 100000 nM
same,TGI,HOP-92 NSCLC,9.89 nM
same,TGI,IGROV1 ovarian,614 nM
same,TGI,OVCAR-8 ovarian,74.1 nM
same,TGI,HCT-15 colon,50000 nM
same,TGI,786-0 renal,12.4 nM
same,TGI,SK-OV-3 ovarian,573 nM and 300 nM
same,TGI,LOX IMVI melanoma,97 nM
same,TGI,NCI-H226 lung,29.2 nM
same,TGI,M14 melanoma,7.95 nM
same,TGI,OVCAR-3 ovarian,5560 nM
same,TGI,HCC-2998 colon,42.7 nM and 129 nM
same,TGI,BT-549 breast,32.6 nM and 21.8 nM
same,TGI,SR leukemia,50000 nM
same,TGI,HT29 colon,38.4 nM
same,TGI,HCT-116 colon,140 nM
same,TGI,MOLT-4 leukemia,50000 nM
same,TGI,SNB-19 CNS,26.9 nM and 111 nM
same,TGI,SK-MEL-5 melanoma,5.89 nM
same,TGI,MALME-3M melanoma,7.56 nM
same,TGI,OVCAR-4 ovarian,9180 nM
same,TGI,K-562 leukemia,50000 nM
same,TGI,SF-295 CNS,38500 nM
same,TGI,COLO 205 colon,36.2 nM
same,TGI,SN12C renal,7.2 nM
same,TGI,SF-268 CNS,20.8 nM
same,TGI,EKVX NSCLC,57.6 nM
same,TGI,CCRF-CEM leukemia,50000 nM
same,TGI,TK-10 renal,18700 nM
same,TGI,MCF7 breast,50000 nM and > 100000 nM
same,TGI,HOP-62 NSCLC,14.5 nM
same,TGI,RPMI-8226 leukemia,50000 nM
same,TGI,NCI-H522 lung,6.71 nM
same,TGI,SW-620 colon,509 nM
